{"source": "patent US20260274866A1", "about": "“PYRIDO[4,3-D]PYRIMIDINE DERIVATIVES AS MUTANT KRAS G12C INHIBITORS FOR THE TREATMENT OF CANCER” (Frontier Medicines Corporation, priority 2023, published 2026)"}
{"biological_target": "T1, KRAS G12C (GMPPNP-loaded) and cRAF (Ras-binding domain) interaction (Homo sapiens, UniProt P01116, C118S/C51S/C80L/G12C)", "T1 construct": "truncated version comprising amino acids 1-169", "T1 sequence (P01116 1-169 isoform P01116-2 G12C/C51S/C80L/C118S)": "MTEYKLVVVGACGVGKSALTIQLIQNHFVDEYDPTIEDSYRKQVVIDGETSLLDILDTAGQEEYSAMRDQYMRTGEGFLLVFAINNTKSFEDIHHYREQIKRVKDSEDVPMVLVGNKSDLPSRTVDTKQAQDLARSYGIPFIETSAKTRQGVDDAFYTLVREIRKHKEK", "experiment": "AlphaScreen inhibition of KRAS G12C and cRAF binding", "format": "biochemical", "conditions": "KRAS G12C preloaded with GTP analogue GMPPNP, 2 hours preincubation", "description": "The AlphaScreen technology was used to determine IC50s for compound inhibition of KRAS G12C (present as the Cys-light (C51S, C80L and C118S), truncated version comprising amino acids 1-169) and cRAF interaction. Compounds were diluted in 100% DMSO and each compound concentration was spotted at 200 nl/well onto low volume, white 384 well plates. The KRAS G12C contained a biotin-AviTag and the cRaf, as Ras-binding domain (amino acids 50-131, RBD), was GST-tagged. KRAS G12C was preloaded with the GTP analogue Guanosine 5′-[β,γ-imido]triphosphate (GMPPNP). The KRAS G12C was diluted in 25 mM Hepes, pH 7.4, 150 mM NaCl, 5 mM MgCl2, 0.01% TritonX-100 and 10 μM GMPPNP and added at 10 ul/well to compound-spotted plates resulting in a DMSO concentration of 2%. Plates were incubated for 2 hours. A mixture of RBD and the AlphaScreen streptavidin donor and glutathione acceptor beads diluted in 25 mM Hepes, pH 7.4, 150 mM NaCl, 5 mM MgCl2, 0.01% TritonX-100 and 2% DMSO was then added at 10 ul/well and incubated for 60-90 minutes before the samples were read for emission at 570 nm after excitation of the donor beads at 680 nm. All incubations were performed at room temperature. The final top compound concentration was 50 μM with 1:3 titrations for 10-point dose response curves. Final assay conditions were 0.5 nM KRAS G12C, 0.75 nM RBD and 5 ug/ml each of AlphaScreen donor and acceptor beads. IC50s were determined using nonlinear regression fit of [inhibitor] vs. response (4 parameters).\nA counter assay was also set up to rule out inhibitors of the AlphaScreen technology itself. Compound plates were incubated for 2 hours as above with buffer only. The AlphaScreen beads were added as above except biotin-AviTag-GST was substituted for the RBD. Samples were read and analyzed as above.", "units": {"IC50": "nM"}}
{"smiles": "C[C@H](/C=C/C(=O)N1CC[C@@H](N(C)c2nc(OC[C@@]34CCCN3C[C@H](F)C4)nc3c(F)c(-c4cccc5ccc(F)c(Cl)c45)ncc23)C1)N(C)C", "note": "[Compound 6]", "IC50": "100 to 500"}
{"smiles": "C[C@H](/C=C/C(=O)N1CCN(c2nc(OCC34CCCN3CCC4)nc3c2CCN(c2cccc4cccc(Cl)c24)C3)C[C@@H]1CC#N)N(C)C", "note": "[Compound 4]", "IC50": "< 10"}
{"smiles": "C[C@H](/C=C/C(=O)N1CCN(c2nc(OC[C@@]34CCCN3C[C@H](F)C4)nc3c(F)c(-c4cccc(Cl)c4C(F)(F)F)ncc23)C[C@@H]1CC#N)N(C)C", "note": "[Compound 46, 2-((S)-4-(7-(3-chloro-2-(trifluoromethyl)phenyl)-8-fluoro-2-(((2R,7aS)-2-fluorotetrahydro-1H-pyrrolizin-7a(5H)-yl)methoxy)pyrido[4,3-d]pyrimidin-4-yl)-1-((R,E)-4-(dimethylamino)pent-2-enoyl)piperazin-2-yl)acetonitrile]", "IC50": "10 to 100"}
{"smiles": "CC(/C=C/C(=O)N1CCN(c2nc(OC[C@@]34CCCN3C[C@H](F)C4)nc3c(F)c(-c4cccc5cccc(Cl)c45)ncc23)C[C@@H]1CC#N)N1CCOCC1", "note": "(some centres unmarked) [Compound 11]", "IC50": "10 to 100"}
{"smiles": "C[C@H](/C=C/C(=O)N1CCN(c2nc(OC[C@@]34CCCN3C[C@H](F)C4)nc3c(F)c(-c4cccc5cccc(Cl)c45)ncc23)C[C@@H]1CC#N)N1CC2CC(C1)O2", "note": "[Compound 36]", "IC50": "10 to 100"}
{"smiles": "C[C@H](/C=C/C(=O)N1CC[C@@H](N(C)c2nc(OC[C@@]34CCCN3C[C@H](F)C4)nc3c(F)c(-c4cccc5cccc(Cl)c45)ncc23)C1)N1CCC1", "note": "[Compound 12]", "IC50": "10 to 100"}
{"smiles": "C[C@H](/C=C/C(=O)N1CCN(c2nc(OC[C@@]34CCCN3C[C@H](F)C4)nc3c(F)c(-c4cccc5cccc(Cl)c45)ncc23)C[C@@H]1CC#N)N1CC[C@H](F)C1", "note": "[Compound 38]", "IC50": "≥ 500"}
{"smiles": "C[C@H](/C=C/C(=O)N1CC[C@@H](N(C)c2nc(OC[C@@]34CCCN3C[C@H](F)C4)nc3c(F)c(-c4cccc5ccc(F)c(F)c45)ncc23)C1)N(C)C", "note": "[Compound 7, (R,E)-1-((R)-3-((7-(7,8-difluoronaphthalen-1-yl)-8-fluoro-2-(((2R,7aS)-2-fluorotetrahydro-1H-pyrrolizin-7a(5H)-yl)methoxy)pyrido[4,3-d]pyrimidin-4-yl)(methyl)amino)pyrrolidin-1-yl)-4-(dimethylamino)pent-2-en-1-one]", "IC50": "100 to 500"}
{"smiles": "CC(/C=C/C(=O)N1CCN(c2nc(OC[C@@]34CCCN3C[C@H](F)C4)nc3c(F)c(-c4cccc5cccc(Cl)c45)ncc23)C[C@@H]1CC#N)N1[C@@H]2CC[C@H]1COC2", "note": "(some centres unmarked) [Compound 17]", "IC50": "< 10"}
{"smiles": "C[C@@H](/C=C/C(=O)N1CCN(c2nc(OC[C@@]34CCCN3C[C@H](F)C4)nc3c(F)c(-c4cccc5cccc(Cl)c45)ncc23)C[C@@H]1CC#N)N1CC2CC(C1)O2", "note": "[Compound 37]", "IC50": "100 to 500"}
{"smiles": "CC(/C=C/C(=O)N1CCN(c2nc(OC[C@@]34CCCN3C[C@H](F)C4)nc3c(F)c(-c4cccc5cccc(Cl)c45)ncc23)C[C@@H]1CC#N)N1C2COCC1C2", "note": "(some centres unmarked) [Compound 27]", "IC50": "10 to 100"}
{"smiles": "CC(/C=C/C(=O)N1CCN(c2nc(OC[C@@]34CCCN3C[C@H](F)C4)nc3c(F)c(-c4cccc5cccc(Cl)c45)ncc23)C[C@@H]1CC#N)N1C[C@@H]2C[C@H]1CO2", "note": "(some centres unmarked) [Compound 15]", "IC50": "10 to 100"}
{"smiles": "C[C@H](/C=C/C(=O)N1CC[C@@H](N(C)c2nc(OC[C@@]34CCCN3C[C@H](F)C4)nc3c(F)c(-c4cccc5cccc(Cl)c45)ncc23)C1)N(C)C", "note": "[Compound 1]", "IC50": "100 to 500"}
{"smiles": "C[C@@H](/C=C/C(=O)N1CCN(c2nc(OCC34CCCN3CCC4)nc3c2CCN(c2cccc4cccc(Cl)c24)C3)C[C@@H]1CC#N)N(C)C", "note": "[Compound 5]", "IC50": "10 to 100"}
{"smiles": "CO[C@@H]1CCN([C@H](C)/C=C/C(=O)N2CCN(c3nc(OC[C@@]45CCCN4C[C@H](F)C5)nc4c(F)c(-c5cccc6ccc(F)c(Cl)c56)ncc34)C[C@@H]2CC#N)C1", "note": "[Compound 40]", "IC50": "100 to 500"}
{"smiles": "CC(/C=C/C(=O)N1CCN(c2nc(OC[C@@]34CCCN3C[C@H](F)C4)nc3c(F)c(-c4cccc5cccc(Cl)c45)ncc23)C[C@@H]1CC#N)N1CC2CCC(C1)O2", "note": "(some centres unmarked) [Compound 33]", "IC50": "10 to 100"}
{"smiles": "CC(/C=C/C(=O)N1CCN(c2nc(OC[C@@]34CCCN3C[C@H](F)C4)nc3c(F)c(-c4cccc5cccc(Cl)c45)ncc23)C[C@@H]1CC#N)N1CC2CC(C1)O2", "note": "(some centres unmarked) [Compound 34]", "IC50": "10 to 100"}
{"smiles": "CO[C@H]1CCN(C(C)/C=C/C(=O)N2CCN(c3nc(OC[C@@]45CCCN4C[C@H](F)C5)nc4c(F)c(-c5cccc6ccc(F)c(Cl)c56)ncc34)C[C@@H]2CC#N)C1", "note": "(some centres unmarked) [Compound 13]", "IC50": "< 10"}
{"smiles": "CC(/C=C/C(=O)N1CCN(c2nc(OC[C@@]34CCCN3C[C@H](F)C4)nc3c(F)c(-c4cccc5cccc(Cl)c45)ncc23)C[C@@H]1CC#N)N1C[C@H]2C[C@@H]1CO2", "note": "(some centres unmarked) [Compound 16]", "IC50": "10 to 100"}
{"smiles": "CC(/C=C/C(=O)N1CC[C@@H](N(C)c2nc(OC[C@@]34CCCN3C[C@H](F)C4)nc3c(F)c(-c4cccc(Cl)c4C4CC4)ncc23)C1)N(C)C", "note": "(some centres unmarked) [Compound 35]", "IC50": "100 to 500"}
{"smiles": "CO[C@@H]1CCN([C@@H](C)/C=C/C(=O)N2CCN(c3nc(OC[C@@]45CCCN4C[C@H](F)C5)nc4c(F)c(-c5cccc6ccc(F)c(Cl)c56)ncc34)C[C@@H]2CC#N)C1", "note": "[Compound 39]", "IC50": "100 to 500"}
{"smiles": "C[C@@H](/C=C/C(=O)N1CC[C@@H](N(C)c2nc(OC[C@@]34CCCN3C[C@H](F)C4)nc3c(F)c(-c4cccc5ccc(F)c(Cl)c45)ncc23)C1)N(C)C", "note": "[Compound 18]", "IC50": "≥ 500"}
{"smiles": "C[C@@H](/C=C/C(=O)N1CCN(c2nc(OC[C@@]34CCCN3C[C@H](F)C4)nc3c(F)c(-c4cccc(Cl)c4C4CC4)ncc23)C[C@@H]1CC#N)N(C)C", "note": "[Compound 45, 2-((S)-4-(7-(3-chloro-2-cyclopropylphenyl)-8-fluoro-2-(((2R,7aS)-2-fluorotetrahydro-1H-pyrrolizin-7a(5H)-yl)methoxy)pyrido[4,3-d]pyrimidin-4-yl)-1-((S,E)-4-(dimethylamino)pent-2-enoyl)piperazin-2-yl)acetonitrile]", "IC50": "100 to 500"}
{"smiles": "C[C@H](/C=C/C(=O)N1CCN(c2nc(OC[C@@]34CCCN3C[C@H](F)C4)nc3c(F)c(-c4cccc5cccc(Cl)c45)ncc23)C[C@@H]1CC#N)N1CC2CCC(C1)O2", "note": "[Compound 42]", "IC50": "100 to 500"}
{"smiles": "C[C@H](/C=C/C(=O)N1C[C@H](F)[C@@H](N(C)c2nc(OC[C@@]34CCCN3C[C@H](F)C4)nc3c(F)c(-c4cccc5cccc(Cl)c45)ncc23)C1)N(C)C", "note": "[Compound 9]", "IC50": "10 to 100"}
{"smiles": "CC(/C=C/C(=O)N1CCN(c2nc(OCC34CCCN3CCC4)nc3c2CCN(c2cccc4cccc(Cl)c24)C3)C[C@@H]1CC#N)N1CCOCC1", "note": "(some centres unmarked) [Compound 3]", "IC50": "10 to 100"}
{"smiles": "C[C@H](/C=C/C(=O)N1CCN(c2nc(OC[C@@]34CCCN3C[C@H](F)C4)nc3c(F)c(-c4cccc5cccc(Cl)c45)ncc23)C[C@@H]1CC#N)N1CCOCC1", "note": "[Compound 23]", "IC50": "10 to 100"}
{"smiles": "C[C@H](/C=C/C(=O)N1CCN(c2nc(OCC34CCCN3CCC4)nc3c2CCN(c2cccc4cccc(Cl)c24)C3)C[C@@H]1CC#N)N1CCOCC1", "note": "[Compound 21]", "IC50": "10 to 100"}
{"smiles": "C[C@@H](/C=C/C(=O)N1CCN(c2nc(OC[C@@]34CCCN3C[C@H](F)C4)nc3c(F)c(-c4cccc5cccc(Cl)c45)ncc23)C[C@@H]1CC#N)N1[C@@H]2CC[C@H]1COC2", "note": "[Compound 31, 2-((S)-1-((S,E)-4-((1R,5S)-3-oxa-8-azabicyclo[3.2.1]octan-8-yl)pent-2-enoyl)-4-(7-(8-chloronaphthalen-1-yl)-8-fluoro-2-(((2R,7aS)-2-fluorotetrahydro-1H-pyrrolizin-7a(5H)-yl)methoxy)pyrido[4,3-d]pyrimidin-4-yl)piperazin-2-yl)acetonitrile]", "IC50": "10 to 100"}
{"smiles": "CO[C@H]1CCN([C@@H](C)/C=C/C(=O)N2CCN(c3nc(OC[C@@]45CCCN4C[C@H](F)C5)nc4c(F)c(-c5cccc6ccc(F)c(Cl)c56)ncc34)C[C@@H]2CC#N)C1", "note": "[Compound 19, 2-((S)-4-(7-(8-chloro-7-fluoronaphthalen-1-yl)-8-fluoro-2-(((2R,7aS)-2-fluorotetrahydro-1H-pyrrolizin-7a(5H)-yl)methoxy)pyrido[4,3-d]pyrimidin-4-yl)-1-((S,E)-4-((S)-3-methoxypyrrolidin-1-yl)pent-2-enoyl)piperazin-2-yl)acetonitrile]", "IC50": "10 to 100"}
{"smiles": "C[C@@H](/C=C/C(=O)N1C[C@H](F)[C@@H](N(C)c2nc(OC[C@@]34CCCN3C[C@H](F)C4)nc3c(F)c(-c4cccc5cccc(Cl)c45)ncc23)C1)N(C)C", "note": "[Compound 8]", "IC50": "10 to 100"}
{"smiles": "C[C@H](/C=C/C(=O)N1CCN(c2nc(OC[C@@]34CCCN3C[C@H](F)C4)nc3c(F)c(-c4cccc5cccc(Cl)c45)ncc23)C[C@@H]1CC#N)N1[C@@H]2CC[C@H]1COC2", "note": "[Compound 30, 2-((S)-1-((R,E)-4-((1R,5S)-3-oxa-8-azabicyclo[3.2.1]octan-8-yl)pent-2-enoyl)-4-(7-(8-chloronaphthalen-1-yl)-8-fluoro-2-(((2R,7aS)-2-fluorotetrahydro-1H-pyrrolizin-7a(5H)-yl)methoxy)pyrido[4,3-d]pyrimidin-4-yl)piperazin-2-yl)acetonitrile]", "IC50": "10 to 100"}
